# Experimental data published in ChEMBL document CHEMBL1135985, “Synthesis, pharmacokinetics, efficacy, and rat retinal toxicity of a novel mitomycin C-triamcinolone acetonide conjugate” (J Med Chem, 2002).
# Experiments:
# [1] = system: NIH3T3; test: Inhibition of NIH 3T3 cell growth required to induce 50% of maximum response using antiproliferative assay; format: functional, cell-based; details: Mus musculus
# [2] = system: NIH3T3; test: Maximal percent of fibroblast cell growth inhibition using antiproliferative assay; format: functional, Mus musculus
SMILES,IC50 [1],Inhibition [2]
CO[C@@]12[C@H](COC(N)=O)C3=C(C(O)=C(C)C(=N)C3=O)N1C[C@H]1[C@@H]2N1C(=O)CCCC(=O)OCC(=O)[C@@]12OC(C)(C)O[C@@H]1CC1C3CCC4=CC(=O)C=C[C@]4(C)[C@@]3(F)[C@@H](O)C[C@@]12C (stereo partly drawn),2.4 µM,67%
CO[C@@]12[C@H](COC(N)=O)C3=C(C(=O)C(C)=C(N)C3=O)N1C[C@@H]1N[C@@H]12 [MITOMYCIN],1.7 µM,88%
CC1(C)O[C@@H]2CC3C4CCC5=CC(=O)C=C[C@]5(C)[C@@]4(F)[C@@H](O)C[C@]3(C)[C@]2(C(=O)CO)O1.CO[C@@]12[C@H](COC(N)=O)C3=C(C(=O)C(C)=C(N)C3=O)N1C[C@@H]1N[C@@H]12 (stereo partly drawn) [MIXTURE OF MMC AND TA],1.6 µM,83%
CC1(C)O[C@@H]2C[C@H]3[C@@H]4CCC5=CC(=O)C=C[C@]5(C)[C@@]4(F)[C@@H](O)C[C@]3(C)[C@]2(C(=O)CO)O1 [TRIAMCINOLONE ACETONIDE],2.5 µM,25%
